Reference: patent US20020162794A1, “Anaerobic digestion” (priority 2001, published 2002)

Columns and labels:
[1] = test system: microorganisms in domestic sewage; conditions: sodium chloride spike; cited from earlier work
[2] = test system: anaerobic mixed culture (domestic sewage); assay: Anaerobic digestion of domestic sewage, overall effect of formate salt concentration; conditions: for effect on anaerobic digestion over the tested concentration range: 10 mg/L to 100,000 mg/L based on the organic matter available for digestion
Description: The various formate salts include, but are not limited to sodium formate (NaHCOO), potassium formate (KHCOO), ammonium formate (NH4COO), calcium formate (Ca(HCOO)2), and others either singly or in combination. These formate salts have been tested for concentrations ranging from 10 mg/L (˜10 ppm) to as high as […] (100,000 mg/L) based on the organic matter available for digestion.
Two tests were run in which sodium formate in concentrations ranging from a few parts per million (ppm) up to ten percent (10%) on a mass basis were added to samples taken from a publicly owned anaerobic digester. The samples were first cultured in laboratory sized batch reactors. The twelve batch reactors were then sampled, and studied for periods of up to fifty-five days. The process variables that were monitored included COD (Chemical Oxygen Demand), TS (Total Solids), TVS (Total Volatile Solids) and the pH of the culture. Time and the initial sodium formate concentration level were the independent variables. Finally measurements were also made of the bacterial counts at the beginning and at the end of the fifty five day period.
Municipal sludge from the city of Lubbock, Wastewater Treatment Plant was digested in 12 batch digesters. Using twelve batch reactors allowed the collection of control reactors data (i.e., no formate in the reactors) in triplicate, titration studies of increasing formate concentration, and duplicates/triplicates of varying formate concentration. Experiments were conducted in the laboratories of Texas Tech University.

In the case of `[Cl-].[Na+]` [sodium chloride], the “toxicity of sodium levels” value [1] is listed as “toxic to all microorganisms in domestic sewage at levels above three to four percent”.
In the case of `N.O=CO` [ammonium formate], the “effect on anaerobic digestion over the tested concentration range” value [2] is reported as “initiate the inhibition of digestion at concentrations above a few thousand mg/L”.
With `O=C[O-].[K+]` [potassium formate] the “effect on anaerobic digestion over the tested concentration range” value [2] was “beneficial at all concentration levels” and the “concentration range of greatest effects” value ([2]; 10 mg/L to 100,000 mg/L tested) was “greatest effects being observed over the 100 ppm to the 2,000-mg/L range”.
